Experimental data from patent US10016409B2, “Method for improving interstitial flow” (priority 2012, dated 2018).
Values joined by “and” are separate entries in the source; they are usually repeats but may differ in a detail not shown here. Identical values can stand only once.

Columns and labels:
MCI patients [1] = assay: Clinical record analysis, MMSE change in MCI patients (MMSE 22 to 26) under donepezil hydrochloride oral administration; assay type: in vivo, human; conditions: additional oral cilostazol in MCI patients under donepezil hydrochloride
Source text: Patients subjected to oral administration of donepezil hydrochloride, having an observation period of one or more years before the MMSE test date, and having first MMSE scores less than or equal to 26 were picked up from a clinical record. Among the patients, patients recorded to have been consecutively administered with cilostazol for 6 months or more in the observation period were classified as a donepezil hydrochloride and cilostazol combined use group (69 cases), and patients recorded to have experienced no cilostazol oral administration were classified as a donepezil hydrochloride single use group (87 cases). Cilostazol was oral-administered at a dosage of 50 to 200 mg/day in the morning and evening, and donepezil hydrochloride was administered at a dosage of 5 mg/day once in a day. Among the patients, patients with MMSE scores greater than or equal to 22 and less than or equal to 26 were extracted as an MCI patient group. Then, 36 cases (16 males and 20 females, average age: 78.4 years old) of the donepezil hydrochloride single use group (hereinafter referred to as a single use group) and 34 cases (15 males and 19 females, average age: 77.2 years old) of the donepezil hydrochloride and cilostazol combined use group (hereinafter referred to as combined use group) were found. The average dosage of cilostazol in the combined use group was 121 mg/day. […] Measurement of MMSE was conducted at least twice in the observation period, and the first and last test results were selected for analysis.

Tg-SwDI mice [2] = assay: Perivascular Aβ deposition by immunohistochemical staining; assay type: in vivo; conditions: vs ordinary feed group
Source text: To verify interstitial flow improvement by cilostazol, inhibition of deposition of harmful proteins on the cerebrovascular lymph drainage pathway by cilostazol was examined by using a cerebral amyloid angiopathy model. Totally unlike a drainage system through a specific receptor or antigen-antibody reaction, drainage of harmful proteins through the interstitial flow is a general drainage system irrespective of the type and amount of proteins, and Aβ in these examples is merely an example of intracerebral harmful proteins for which the interstitial flow is improved so that deposition on the cerebrovascular lymph drainage pathway is inhibited.
After 15 months from the start of breeding, with respect to Tg-SwDI mice of a group administered with cilostazol-containing feed for 13.5 months and Tg-SwDI mice of the ordinary feed administered group, the brain was perfusion-fixed by using 4% paraformaldehide, and the extracted brain was dehydrated for one day. Then, a paraffin block of a fixed brain tissue was prepared, and a paraffin block was sliced to 6 microns with a microtome. […] An ImageJ (NIH) was used as image analysis software. Five regions of interest were randomly selected from the frontal lobe and the hippocampus region in a tissue section, and photographed in a field with a magnification of 200. The measured data was analyzed by using a t test.

Tg-SwDI mice [3] = assay: Drainage of injected fluorescent label Aβ1-40 through perivascular interstitial fluid pathway; assay type: in vivo; conditions: single images FIGS. 8 to 10, 30 minutes after injection into striate, cilostazol-containing feed group
Source text: To verify interstitial flow improvement by cilostazol, harmful protein drainage facilitation by cilostazol was examined by using a cerebral amyloid angiopathy model. Totally unlike a drainage system through a specific receptor or antigen-antibody reaction, drainage of harmful proteins through the interstitial flow is a general drainage system irrespective of the type and amount of proteins, and Aβ in these examples is merely an example of intracerebral harmful proteins for which the interstitial flow is improved so that drainage is facilitated.
After 15 months from the start of breeding, with respect to Tg-SwDI mice (n=4) of a group administered with cilostazol-containing feed for 13.5 months and Tg-SwDI mice (n=3) of the ordinary feed administered group, Tg-SwDI mice were placed at the prone position under inhalation anesthesia using 1.5% isoflurane, midline incision of scalp was performed, and then, by using a 32 G micropipet, such that a fluorescent label Aβ1-40 was injected for 30 seconds in the manner of stereotaxy into the striate of Tg-SwDI mice (a front part of 0.98 mm and a side part of 1.5 mm in bregma) as indicated by the arrow in FIG. 7. The depth from the brain surface to the injection site of the striate was 3.0 mm, and the fluorescent label Aβ1-40 was purchased from AnaSpec (San Jose, Calif., USA). […]

MCI patients [4] = assay: Retrospective clinical survey, MMSE change in patients with first MMSE score 22 to 26 (MCI), no anti-dementia drugs; assay type: in vivo, human
Source text: Harmful proteins such as tau protein, α-synuclein protein, amyloid β protein, and ubiquitinated protein, which cause disorders in nerve function, are gradually accumulated in the brain with age. Irrespective of the type of accumulated harmful proteins, mild disorders in cognitive function is observed in an initial stage. However, in this stage, irreversible neuron degeneration in cranial nerve tissues has been seldom observed yet. Thus, activation of the interstitial flow, which is one of major drainage pathways of harmful proteins, might cure mild disorders of cognitive function. To examine this hypothesis, it was evaluated how consecutive oral administration of cilostazol affects cognitive functions of patients having MMSE scores greater than or equal to 22 and less than or equal to 26 and suspected to have mild deterioration of cognitive function.
A survey was conducted on consecutive cases (3183 cases in total) between 1996 and 2012 whose records of cilostazol administration exist, and examination using all the cases that match the following conditions was carried out. In this examination, to eliminate the influence of anti-dementia drugs, all the patients administered with anti-dementia drugs such as donepezil were removed from the analysis.
(i) The mini mental state exam (MMSE), which is a typical test of cognitive function, was performed twice or more with an interval of 6 months or more a case where the MMSE was performed three or more times, two examination results of the first examination and the last examination were selected);
(ii) The first MMSE score was greater than or equal to 22 and less than or equal to 26;
(iii) A case in which cilostazol was administered in a period at least more than a half of an MMSE observation period was selected as a group (hereinafter referred to as a treated group) subjected to consecutive treatment; and
(iv) A case in which cilostazol was administered in two months or less in the MMSE observation period was selected as a group (hereinafter referred to as an untreated group) not subjected to consecutive treatment.
(i) The rate of change in MMSE scores in each group (calculation method: [last MMSE score−first MMSE score]/MMSE observation period [years]); and
(ii) The rate of change in scores in each item of the MMSE test in each group (calculation method: [score of last MMSE test item−score of first MMSE test item]/MMSE observation period [years]).
In comparison between the two groups, statistical analysis was conducted such that the rate difference was obtained by using a chi-square test and other items were obtained by using a t test.

dementia patients = assay: Clinical record analysis, MMSE change in dementia patients (MMSE less than or equal to 21) under donepezil hydrochloride oral administration; assay type: in vivo, human; conditions: dementia patients oral-administered with donepezil hydrochloride
Source text: Patients subjected to oral administration of donepezil hydrochloride, having an observation period of one or more years before the MMSE test date, and having first MMSE scores less than or equal to 26 were picked up from a clinical record. Among the patients, patients recorded to have been consecutively administered with cilostazol for 6 months or more in the observation period were classified as a donepezil hydrochloride and cilostazol combined use group (69 cases), and patients recorded to have experienced no cilostazol oral administration were classified as a donepezil hydrochloride single use group (87 cases). Cilostazol was oral-administered at a dosage of 50 to 200 mg/day in the morning and evening, and donepezil hydrochloride was administered at a dosage of 5 mg/day once in a day.
As a dementia patient group oral-administered with donepezil hydrochloride, patients with MMSE scores less than or equal to 21 were extracted. Then, the donepezil hydrochloride single use group (the single use group) was 51 cases (17 males and 34 females, average age: 78.2 years old) and the donepezil hydrochloride and cilostazol combined use group (the combined use group) was 35 cases (14 males and 21 females, average age: 79.3 years old). The average dosage of cilostazol in the combined use group was 139 mg/day.

O=C1CCc2cc(OCCCCc3nnnn3C3CCCCC3)ccc2N1 [cilostazol, 6-[4-(1-cyclohexyl-1H-tetrazole-5-yl)butoxy]3,4-dihydrocarbostyril]
reduction of the annual decrease rate of MMSE scores (MCI patients [1]): about 80% | deposition of Aβ on the perivascular site (Tg-SwDI mice [2]; cilostazol-containing feed for 8 months from 4 months of age, FIG. 15): reduced | deposition of Aβ on the perivascular site (Tg-SwDI mice [2]; cilostazol-containing feed for 13.5 months from 1.5 months of age, FIG. 16): reduced | amount of Aβ deposited on a perivascular site (Tg-SwDI mice [2]; frontal lobe and hippocampus, FIGS. 13 and 14): smaller | distance of fluorescent label Aβ1-40 accumulation site of a leptomeninges vessel from the injection site (Tg-SwDI mice [3]): 2922 μm and 3422 μm and 3507 μm | increase in MMSE scores (treated vs untreated group) (MCI patients [4]; MCI patients, as described in Example (4)): about 4 | rate of change in MMSE score (MCI patients [4]; MCI treated group (31 cases), first MMSE 22-26, average±standard error, P=0.007 vs untreated): 0.4±0.7 per year | rate of change in MMSE item 5 of delayed recall (MCI patients [4]; MCI treated group, score change/observation period [years], P=0.004 vs untreated): 0.16±0.13 | rate of change in MMSE item 9 of command with sentence (MCI patients [4]; MCI treated group, score change/observation period [years], P=0.008 vs untreated): 0.01±0.06 | rate of change in MMSE item 11 of visual configuration (MCI patients [4]; MCI treated group, score change/observation period [years], P=0.02 vs untreated): 0.03±0.08 | rate of change in MMSE item 1 of orientation to time (MCI patients [4]; MCI treated group, score change/observation period [years], P=0.03 vs untreated): −0.13±0.16 | side effects leading to no consecutive cilostazol treatment (MCI patients [4]; untreated group of MCI survey): side effects such as diarrhea and headaches | effectiveness for dementia (dementia patients): no effectiveness for dementia
